Patent US7125865B2, “Therapeutic compounds for treating dyslipidemic conditions” (Merck & Co., Inc., priority 2002, dated 2006)

Tested on: Caco-2 cells
Test: apoA-I mediated 3H-cholesterol efflux from Caco-2 cells
Format: cell-based, human
Conditions: 24 h, 10 μg/ml apoA-I, mean and SEM of quadruplicate
Description: To assess the relevant biological activity of the LXR agonists, certain compounds were tested for their ability to increase cholesterol efflux from cultured human cells, as described by Sparrow et al., JBC volume 277, pages 10021–10027, Mar. 22, 2002. Caco-2 cells, which are of human origin, were obtained from ATCC and grown in Opti-MEM (Gibco #51985-034) containing 10% FCS, non-essential amino acids (Gibco #11140-050), and vitamins (Gibco # 11120-052). Caco-2 cells were plated at 100,000 cells/well in 48-well plates. After four days the cells had reached confluence, and were then labeled with ^3H-cholesterol by incubation for 24 hours in fresh growth media containing ^3H-cholesterol (10 μCi/ml). Following labeling with ^3H-cholesterol, cells were washed and incubated an additional 24 hours in serum-free media containing 1 mg/ml BSA, to allow for equilibration of ^3H-cholesterol with intracellular cholesterol. Cholesterol efflux was initiated by adding 10 μg/ml apoA-I, with or without compound, in serum-free medium. Compounds were added to cell culture medium from DMSO solutions, and control cells received an equivalent amount of DMSO, never exceeding 0.1%. After 24 hours, media were harvested and cells dissolved in 0.1 M NaOH. Media were briefly centrifuged to remove non-adherent cells, and then aliquots of both the supernatants and the dissolved cells were subjected to liquid scintillation spectrometry to determine radioactivity. Cholesterol efflux is expressed as a percentage, calculated as (^3H-cholesterol in medium/(^3H-cholesterol in medium+^3H-cholesterol in cells))×100.

Structure (SMILES)	% cholesterol efflux (compound concentration 1 nM)	% cholesterol efflux (compound concentration 10 nM)	% cholesterol efflux (compound concentration 100 nM)	% cholesterol efflux (compound concentration 1000 nM)	% cholesterol efflux (compound concentration 5000 nM)
CCCc1c(OCCCN2C(=O)NC(C)(c3ccccc3)C2=O)ccc2c(C(F)(F)F)noc12 (racemic) [Example 25, rac-5-methyl-5-phenyl-3-(3-{[7-propyl-3-(trifluoromethyl)-1,2-benzisoxazol-6-yl]oxy}propyl)imidazolidine-2,4-dione]	3.4 ± 0.3%	3.5 ± 0.09%	4.5 ± 0.09%	4.6 ± 0.09%	5.2 ± 0.2%
CCCc1c(OCCCN2C(=O)CSC2=O)ccc2c(C(F)(F)F)noc12 [Example 16, 3-(3-{[7-propyl-3-(trifluoromethyl)-1,2-benzisoxazol-6-yl]oxy}propyl)thiazolidine-2,4-dione]	3.2 ± 0.3%	4.0 ± 0.2%	8.8 ± 0.7%	10.3 ± 0.3%	6.6 ± 0.4%
